Experimental data as given in ChEMBL document CHEMBL3588753, “Recent progress in the drug development of coumarin derivatives as potent antituberculosis agents” (2015).
Converted amounts (≈) assume the structure as drawn.

Legend:
Assay type in all cases: functional
[1] = test system: Mycobacterium tuberculosis; assay: Antimycobacterial activity against Mycobacterium tuberculosis H37Rv assessed as growth inhibition by Alamar Blue staining-based broth microdilution assay; design: inhibition (INH): concentration or dose not given beside the values; conditions: for MIC: Mycobacterium tuberculosis, H37Rv
[2] = test system: Mycolicibacterium smegmatis; assay: Antimicrobial activity against Mycobacterium smegmatis
Mycolicibacterium phlei = assay: Antimycobacterial activity against Mycobacterium phlei
[3] = test system: Mycobacterium tuberculosis; assay: Antimycobacterial activity against Mycobacterium tuberculosis H37Rv assessed as growth inhibition at 6.25 ug/ml by Alamar Blue staining-based broth microdilution assay
[4] = test system: Mycobacterium tuberculosis; assay: Ratio of CPFX IC50 to compound IC50 Mycobacterium tuberculosis H37Rv assessed as growth inhibition
[5] = test system: Mycobacterium tuberculosis; assay: Ratio of RIF IC50 to compound IC50 Mycobacterium tuberculosis H37Rv assessed as growth inhibition
[6] = test system: Mycobacterium tuberculosis; assay: Ratio of 8-OCH3 IC50 to compound IC50 Mycobacterium tuberculosis H37Rv assessed as growth inhibition
[7] = test system: Mycobacterium tuberculosis; assay: Ratio of GTFX IC50 to compound IC50 Mycobacterium tuberculosis H37Rv assessed as growth inhibition
[8] = test system: Mycobacterium tuberculosis; assay: Ratio of MXFX IC50 to compound IC50 Mycobacterium tuberculosis H37Rv assessed as growth inhibition
[9] = test system: Mycobacterium tuberculosis; assay: Antimycobacterial activity against Mycobacterium tuberculosis H37Rv assessed as growth inhibition at 128 ug/ml by low-oxygen recovery assay
[10] = test system: Mycobacterium tuberculosis; assay: Antimycobacterial activity against Mycobacterium tuberculosis H37Rv assessed as growth inhibition at 128 ug/ml by Alamar Blue staining-based broth microdilution assay
[11] = test system: Mycolicibacterium fortuitum; assay: Antimycobacterial activity against Mycobacterium fortuitum

Question: How did the “inhibition (INH)” value [1] turn out when `O=C(Cc1cc(=O)oc2cc(O)ccc12)N/N=C/c1cccc([N+](=O)[O-])c1` was run?
Answer: The value was 93%.

Question: Which results are given for `C/C(=C\CC/C(C)=C/Cc1c(O)c2ccccc2oc1=O)CC/C=C(\C)COC(=O)c1ccccc1`?
Answer: MIC [2]: 2 µg/mL (≈ 4.11 µM); MIC (Mycolicibacterium phlei): 2 µg/mL (≈ 4.11 µM)

Question: How did the MIC [1] turn out when `C=CC(C)(C)c1c2c(c(OC)c3ccc(=O)oc13)C=CC(C)(C)O2` [DENTATIN] was run?
Answer: The MIC was 50 µg/mL (≈ 153 µM).

Question: `COc1cc2ccc(=O)oc2cc1O` [SCOPOLETIN] was tested. Which MIC [1] did it give?
Answer: Its MIC is 42.1 µg/mL (≈ 219 µM).

Question: With `Cc1ccc(O)c(C(=O)c2ccc(-c3cc4cc(Br)ccc4oc3=O)nc2)c1` as the molecule, how does the MIC [1] read?
Answer: Its MIC is 100 µg/mL (≈ 229 µM).

Question: `N#Cc1c(/C=C/c2cccc(-c3ccccc3)c2)c2cc(Cl)ccc2oc1=O` was tested. Which “inhibition (INH)” value [1] did it give?
Answer: Its value is 72%.

Question: `C/C(=C\CC/C(C)=C/CC/C(C)=C/Cc1c(O)c2ccccc2oc1=O)CO` was tested. Which MIC [2] did it give?
Answer: The MIC was 16 µg/mL (≈ 41.8 µM).

Question: And the MIC (Mycolicibacterium phlei)?
Answer: The MIC was 16 µg/mL (≈ 41.8 µM).

Question: `COc1cc(/C=C/c2c(C#N)c(=O)oc3ccc(Cl)cc23)cc(OC)c1OC` was tested. Which “inhibition (INH)” value [1] did it give?
Answer: Its value is 87%.

Question: `Cc1ccc(O)c(C(=O)c2ccc(-c3cc4ccccc4oc3=O)nc2)c1` was tested. Which MIC [1] did it give?
Answer: Its MIC is 100 µg/mL (≈ 280 µM).

Question: With `O=c1ccc2c(O)c3ccoc3cc2o1` [BERGAPTOL] as the molecule, how does the MIC [1] read?
Answer: Its MIC is 100 µg/mL (≈ 495 µM).

Question: With `C=CC(C)(C)c1c(O)c2c(c3ccc(=O)oc13)OC(C)(C)C=C2` as the molecule, how does the MIC [1] read?
Answer: Its MIC is 100 µg/mL (≈ 320 µM).

Question: `O=c1cc(Nc2ccc3ccccc3c2)c2ccccc2o1` was tested. Which inhibition at 6.25 µg/mL [3] did it give?
Answer: The inhibition at 6.25 µg/mL was 81%.

Question: With `Cc1cc2oc(=O)cc(Nc3ccc4ccccc4c3)c2cc1Cl` as the molecule, how does the inhibition at 6.25 µg/mL [3] read?
Answer: The inhibition at 6.25 µg/mL was 100%.

Question: Which MIC [2] does the source give for `CC(=O)OC/C(C)=C/CC/C(C)=C/CC/C(C)=C/Cc1c(O)c2ccccc2oc1=O` here?
Answer: The MIC was 8 µg/mL (≈ 18.8 µM).

Question: And the MIC (Mycolicibacterium phlei)?
Answer: The MIC was 8 µg/mL (≈ 18.8 µM).

Question: For `COc1ccc2cc(C(=O)CN3CCN(c4c(F)cc5c(=O)c(C(=O)O)cn(C6CC6)c5c4OC)CC3)c(=O)oc2c1`, which “Ratio IC50” value [4] is on record?
Answer: Its value is 2.

Question: And the “Ratio IC50” value [5]?
Answer: Its value is 2.

Question: What about the “Ratio IC50” value [6] of the same molecule?
Answer: The value was 2.

Question: And the MIC [2]?
Answer: The MIC was 6.25 µg/mL (≈ 10.8 µM).

Question: And the “Ratio IC50” value [7]?
Answer: Its value is 2.

Question: And the MIC [1]?
Answer: Its MIC is 0.25 µg/mL (≈ 0.433 µM).

Question: And the “Ratio IC50” value [8]?
Answer: Its value is 2.

Question: For `COc1cc2oc(=O)ccc2cc1[C@H]1OC(=O)[C@]2(C)O[C@H]12`, which MIC [1] is on record?
Answer: Its MIC is 50 µg/mL (≈ 173 µM).

Question: For `O=C1Nc2c(c(=O)oc3ccccc23)C(c2ccccc2O)N1` (centres undefined), which inhibition at 128 µg/mL [9] is on record?
Answer: The inhibition at 128 µg/mL was 37%.

Question: What about the inhibition at 128 µg/mL [10] of the same molecule?
Answer: The inhibition at 128 µg/mL was 45%.

Question: For `N#Cc1c(/C=C/c2c3ccccc3cc3ccccc23)c2cc(Cl)ccc2oc1=O`, which “inhibition (INH)” value [1] is on record?
Answer: Its value is 81%.

Question: With `CN(C)c1ccc(/C=C/c2c(C#N)c(=O)oc3ccc(Cl)cc23)cc1` as the molecule, how does the “inhibition (INH)” value [1] read?
Answer: Its value is 79%.

Question: `Cc1ccc(C)c2c(CC(=O)N/N=C/c3ccccc3)cc(=O)oc12` was tested. Which “inhibition (INH)” value [1] did it give?
Answer: The value was 70%.

Question: For `COc1c2c(cc3oc(=O)c(-c4ccc(O)cc4)c(O)c13)OC(C)(C)C=C2`, which MIC [2] is on record?
Answer: Its MIC is 18 µg/mL (≈ 49.1 µM).

Question: How did the inhibition at 128 µg/mL [9] turn out when `COc1ccc(C2NC(=O)Nc3c2c(=O)oc2ccc(C)cc32)cc1OC` (centres undefined) was run?
Answer: Its inhibition at 128 µg/mL is 35%.

Question: What about the inhibition at 128 µg/mL [10] of the same molecule?
Answer: Its inhibition at 128 µg/mL is 55%.

Question: With `O=c1oc2ccccc2c(O)c1C1=Nc2ccccc2SC(c2ccc([N+](=O)[O-])cc2)C1` (centres undefined) as the molecule, how does the inhibition at 6.25 µg/mL [3] read?
Answer: Its inhibition at 6.25 µg/mL is 93%.

Question: `Cc1ccc(C)c2c(CC(=O)N/N=C/c3ccccc3[N+](=O)[O-])cc(=O)oc12` was tested. Which “inhibition (INH)” value [1] did it give?
Answer: The value was 65%.

Question: For `O=c1oc2ccccc2c(O)c1C1=Nc2ccccc2SC(c2c[nH]c3ccccc23)C1` (centres undefined), which inhibition at 6.25 µg/mL [3] is on record?
Answer: Its inhibition at 6.25 µg/mL is 80%.

Question: `CC(C)=CCC/C(C)=C/CC/C(C)=C/Cc1c(O)c2ccccc2oc1=O` was tested. Which MIC [11] did it give?
Answer: Its MIC is 2 µg/mL (≈ 5.46 µM).

Question: What about the MIC [2] of the same molecule?
Answer: Its MIC is 0.5 µg/mL (≈ 1.36 µM).

Question: Which results are given for `COc1ccc(-c2cc(-c3ccc(Nc4cc(=O)oc5ccccc45)cc3)nc(N)c2C#N)cc1OC`?
Answer: inhibition (INH) [1]: 99%; MIC [1]: 12.5 µg/mL (≈ 25.5 µM)

Question: With `COc1cccc2cc(-c3ccc(C(=O)c4cc(C)ccc4O)cn3)c(=O)oc12` as the molecule, how does the MIC [1] read?
Answer: Its MIC is 62.5 µg/mL (≈ 161 µM).

Question: `Cc1cc(=O)oc2cc(OCc3cn(Cc4cc(=O)oc5ccc6ccccc6c45)nn3)ccc12` was tested. Which MIC [1] did it give?
Answer: Its MIC is 6.25 µg/mL (≈ 13.4 µM).

Question: `O=C(CN1CCN(c2cc3c(cc2F)c(=O)c(C(=O)O)cn3C2CC2)CC1)c1cc2ccc(O)cc2oc1=O` was tested. Which MIC [2] did it give?
Answer: The MIC was 3.12 µg/mL (≈ 5.85 µM).

Question: And the MIC [1]?
Answer: The MIC was 0.5 µg/mL (≈ 0.937 µM).

Question: `O=C(N/N=C/c1cccc(O)c1)c1cc2ccccc2oc1=O` was tested. Which MIC [1] did it give?
Answer: Its MIC is 50 µg/mL (≈ 162 µM).

Question: For `O=C(N/N=C/c1ccc([N+](=O)[O-])cc1)c1cc2ccccc2oc1=O`, which MIC [1] is on record?
Answer: The MIC was 100 µg/mL (≈ 296 µM).

Question: Which results are given for `O=C(CSc1nnc(-c2cc3ccccc3oc2=O)o1)Nc1nc2ccc(Br)cc2s1`?
Answer: inhibition (INH) [1]: 99%; MIC [1]: 12.5 µg/mL (≈ 24.3 µM)

Question: For `Cc1cc(=O)oc2cc(OCc3cn(Cc4cc(=O)oc5cc(Cl)ccc45)nn3)ccc12`, which MIC [1] is on record?
Answer: The MIC was 6.25 µg/mL (≈ 13.9 µM).

Question: `COc1ccc2ccc(=O)oc2c1C(CO)=C(C)C` was tested. Which MIC [1] did it give?
Answer: The MIC was 50 µg/mL (≈ 192 µM).

Question: With `C=CC(C)(C)c1c2c(c(O)c3ccc(=O)oc13)C(=O)CC(C)(C)O2` as the molecule, how does the MIC [1] read?
Answer: Its MIC is 200 µg/mL (≈ 609 µM).

Question: Which “inhibition (INH)” value [1] does the source give for `O=C(c1ccncc1)n1nc(-c2ccc(F)cc2)cc1-c1cc2ccccc2oc1=O` here?
Answer: The value was 80.09%.

Question: And the MIC [1]?
Answer: The MIC was 0.625 µg/mL (≈ 1.52 µM).

Question: How did the inhibition at 128 µg/mL [9] turn out when `COc1ccc(C2NC(=O)Nc3c2c(=O)oc2ccc(C)cc32)cc1` (centres undefined) was run?
Answer: Its inhibition at 128 µg/mL is 62%.

Question: What about the inhibition at 128 µg/mL [10] of the same molecule?
Answer: The inhibition at 128 µg/mL was 58%.

Question: Which inhibition at 6.25 µg/mL [3] does the source give for `O=c1oc2ccccc2c(O)c1C1=Nc2ccccc2SC(c2ccccc2O)C1` (centres undefined) here?
Answer: The inhibition at 6.25 µg/mL was 94%.

Question: For `Cc1cc(=O)oc2cc(OCc3cn(Cc4cc(=O)oc5ccc(Cl)cc45)nn3)ccc12`, which MIC [1] is on record?
Answer: The MIC was 6.25 µg/mL (≈ 13.9 µM).

Question: Which results are given for `O=C(CSc1nnc(-c2cc3ccccc3oc2=O)o1)Nc1ccc(I)cc1`?
Answer: inhibition (INH) [1]: 99%; MIC [1]: 12.5 µg/mL (≈ 24.7 µM)
